Where a SMILES comes first, the peptide text is derived from it.
system: N-His Ich-1; assay: 100 mM sodium acetate (pH 6.2), 20% (v/v) glycerol, 5 mM dithiothreitol, 0.5 mM EDTA and approximately 15 μg N-His Ich-1; conditions: Human, 30° C., up to 60 minutes

Row | Molecule | not cleaved | cleaved bond
1 | Ac-HSLDNKDGPVW-NH2 | 0% cleavage after 60 minute reaction | 
2 | Ac-NEAYVHDAPVRSLY-NH2 | 0% cleavage after 60 minute reaction | 

The remaining lines, values ahead:

Row | not cleaved | cleaved bond | Molecule
3 | 1% cleavage after 60 minute reaction |  | Ac-GEDMQDNSGTYW-NH2
4 |  | Asp7-Gly | Ac-RGVDQQDGKNHW-NH2
5 | 0% cleavage after 60 minute reaction |  | Ac-WGDEVDGVDEVW-NH2
6 | 0% cleavage after 60 minute reaction |  | Ac-YSDQMDGFHDSW-NH2

target: T1, N-His Ich-1 (Homo sapiens, UniProt P42575); assay: In vitro proteolysis assay: cleavage of candidate peptide substrates by N-His Ich-1 (reverse phase HPLC); type: biochemical; conditions: 10 μM peptide, 30° C., pH 6.2, 60 minute reaction
T1 construct: contains Ich-1 amino acid residues 167-435, with an initiator and polyhistidine tag fused to the amino terminus; initiator (Met) + polyhistidine tag (N); made in house
T1 sequence (P42575 184-333): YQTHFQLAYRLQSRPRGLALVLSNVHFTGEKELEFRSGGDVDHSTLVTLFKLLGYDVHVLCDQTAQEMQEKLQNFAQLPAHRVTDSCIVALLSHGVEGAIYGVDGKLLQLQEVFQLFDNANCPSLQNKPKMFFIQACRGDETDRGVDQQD
T1 sequence (P42575 334-452): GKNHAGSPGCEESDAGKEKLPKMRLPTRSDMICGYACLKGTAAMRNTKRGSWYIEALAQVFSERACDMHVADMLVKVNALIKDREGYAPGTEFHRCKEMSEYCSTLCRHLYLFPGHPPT
Description: To identify peptide substrates for Ich-1, candidate peptides were used in in vitro proteolysis assays with recombinant Ich-1 protein. Human Ich-1 enzyme (the nucleotide and amino acid sequences for which are disclosed in Wang, L., et al. (1994) Cell 78:739-750) was expressed recombinantly with an N-terminal polyhistidine tag by methods described in Kamens, J., et al. (1995) J. Biol. Chem. 270:15250-15256. The resulting enzyme, called N-His Ich-1, contains Ich-1 amino acid residues 167-435, with an initiator and polyhistidine tag fused to the amino terminus. The recombinant N-His Ich-1 protein was purified by metal chelating column chromatography as described in Porath, J. (1992) Protein Expression and Purification 3:263-281.
Candidate peptide substrates were synthesized by standard solid phase methods and were purified to ≥95% by reverse-phase chromatography. Peptide identities were confirmed by mass spectrometry. Each peptide was acetylated at the amino-terminus and amidated at the carboxy-terminus. The amino acid sequence of each peptide included at least one Trp or Tyr residue. Stock solutions of each peptide were prepared in dimethylsulfoxide (DMSO) at approximately 10 mM. The precise concentration of each stock solution was determined in duplicate as described in Edelhoch, H. (1967) Biochemistry 6:1948-1954. Dilutions of each stock solution to 500 μM were prepared and stored at -20° C. prior to use in enzyme assays.
To determine the substrate specificity of Ich-1, Vmax /Km values for various candidate peptide substrates were compared using experimental procedures modeled after those of Howard, A., et al. (1991) J. Immunol. 147:2964-2969. Enzyme reaction mixtures (810 μL) were prepared containing: 100 mM sodium acetate (pH 6.2), 20% (v/v) glycerol, 5 mM dithiothreitol, 0.5 mM EDTA and approximately 15 μg N-His Ich-1. These mixtures were capped and preincubated for 30 minutes at 30° C. Candidate peptide substrates were added from 500 μM DMSO stocks to give final concentrations of 10 μM peptide and 2% (v/v) DMSO. The reaction mixtures were then capped and incubation was continued at 30° C. At 10 minute intervals for 60 minutes beginning at t=0, aliquots of 110 μL were removed from each reaction mixture and added to vials containing 11 μL of a solution of 3 M HCl in water to stop the enzyme reaction. Samples were stored at room temperature prior to analysis.
Samples were analyzed by reverse phase HPLC using a 250×4.6 mm C18 reverse phase column (Vydak, Hesperia, Calif.) and a linear gradient of MeCN--H2 O with 0.1% (v/v) TFA. The area under the substrate peaks (arbitrary units) was plotted vs. time of reaction for each substrate and fit into an equation of the form: [formula]
wherein S0 is substrate peak area at time=0, St is substrate peak area at time=t, e is a constant approximately equal to 2.718, k is the first order rate constant formally equal to Vmax /Km and t is time. […] Alternatively, results can be expressed as percent substrate cleavage after a fixed time of reaction.

Row | Molecule | % Cleavage after 60 minute reaction
7 | CC(=O)N[C@@H](CCCNC(=N)N)C(=O)NCC(=O)N[C@H](C(=O)N[C@@H](CC(=O)O)C(=O)N[C@@H](CCC(N)=O)C(=O)N[C@@H](CCC(N)=O)C(=O)N[C@@H](CC(=O)O)C(=O)NCC(=O)N[C@@H](CCCCN)C(=O)N[C@@H](CC(N)=O)C(=O)N[C@@H](Cc1c[nH]cn1)C(=O)N[C@@H](Cc1c[nH]c2ccccc12)C(N)=O)C(C)C [Peptide 1, acetyl-RGVDQQDGKNHW-amide] (Ac-RGVDQQDGKNHW-NH2) | 80%
8 | CC(=O)N[C@@H](CC(N)=O)C(=O)N[C@@H](CCC(=O)O)C(=O)N[C@@H](C)C(=O)N[C@@H](Cc1ccc(O)cc1)C(=O)N[C@H](C(=O)N[C@@H](Cc1c[nH]cn1)C(=O)N[C@@H](CC(=O)O)C(=O)N[C@@H](C)C(=O)N1CCC[C@H]1C(=O)N[C@H](C(=O)N[C@@H](CCCNC(=N)N)C(=O)N[C@@H](CO)C(=O)N[C@@H](CC(C)C)C(=O)N[C@@H](Cc1ccc(O)cc1)C(N)=O)C(C)C)C(C)C [Peptide 2, acetyl-NEAYVHDAPVRSLY-amide] (Ac-NEAYVHDAPVRSLY-NH2) | 0%
9 | CC(=O)N[C@@H](Cc1c[nH]cn1)C(=O)N[C@@H](CO)C(=O)N[C@@H](CC(C)C)C(=O)N[C@@H](CC(=O)O)C(=O)N[C@@H](CC(N)=O)C(=O)N[C@@H](CCCCN)C(=O)N[C@@H](CC(=O)O)C(=O)NCC(=O)N1CCC[C@H]1C(=O)N[C@H](C(=O)N[C@@H](Cc1c[nH]c2ccccc12)C(N)=O)C(C)C [Peptide 4, acetyl-HSLDNKDGPVW-amide] (Ac-HSLDNKDGPVW-NH2) | 0%
10 | CSCC[C@H](NC(=O)[C@H](CCC(N)=O)NC(=O)[C@H](CC(=O)O)NC(=O)[C@H](CO)NC(=O)[C@H](Cc1ccc(O)cc1)NC(C)=O)C(=O)N[C@@H](CC(=O)O)C(=O)NCC(=O)N[C@@H](Cc1ccccc1)C(=O)N[C@@H](Cc1c[nH]cn1)C(=O)N[C@@H](CC(=O)O)C(=O)N[C@@H](CO)C(=O)N[C@@H](Cc1c[nH]c2ccccc12)C(N)=O [Peptide 6, acetyl-YSDQMDGFHDSW-amide] (Ac-YSDQMDGFHDSW-NH2) | 0%
11 | CC[C@H](C)[C@H](NC(=O)CNC(=O)[C@H](CS)NC(C)=O)C(=O)N[C@@H](CCC(=O)O)C(=O)N[C@H](C(=O)N[C@@H](CC(=O)O)C(=O)N[C@@H](CO)C(=O)NCC(=O)N[C@H](C(=O)N[C@@H](CC(=O)O)C(=O)N[C@@H](CC(=O)O)C(=O)N[C@@H](Cc1c[nH]c2ccccc12)C(N)=O)C(C)C)[C@@H](C)O [Peptide 7, acetyl-CGIETDSGVDDW-amide] (Ac-CGIETDSGVDDW-NH2) | 8%

More lines, now with the values ahead:

Row | % Cleavage after 60 minute reaction | Molecule
12 | 0% | CC(=O)N[C@@H](Cc1c[nH]c2ccccc12)C(=O)NCC(=O)N[C@@H](CC(=O)O)C(=O)N[C@@H](CCC(=O)O)C(=O)N[C@H](C(=O)N[C@@H](CC(=O)O)C(=O)NCC(=O)N[C@H](C(=O)N[C@@H](CC(=O)O)C(=O)N[C@@H](CCC(=O)O)C(=O)N[C@H](C(=O)N[C@@H](Cc1c[nH]c2ccccc12)C(N)=O)C(C)C)C(C)C)C(C)C [Peptide 3, acetyl-WGDEVDGVDEVW-amide] (Ac-WGDEVDGVDEVW-NH2)
13 | 1% | CSCC[C@H](NC(=O)[C@H](CC(=O)O)NC(=O)[C@H](CCC(=O)O)NC(=O)CNC(C)=O)C(=O)N[C@@H](CCC(N)=O)C(=O)N[C@@H](CC(=O)O)C(=O)N[C@@H](CC(N)=O)C(=O)N[C@@H](CO)C(=O)NCC(=O)N[C@H](C(=O)N[C@@H](Cc1ccc(O)cc1)C(=O)N[C@@H](Cc1c[nH]c2ccccc12)C(N)=O)[C@@H](C)O [Peptide 5, acetyl-GEDMQDNSGTYW-amide] (Ac-GEDMQDNSGTYW-NH2)

same assay, conditions: Tables 1-3

Row | Molecule | cleavage by N-His Ich-1 (in words)
14 | CC(=O)N[C@@H](CCCNC(=N)N)C(=O)NCC(=O)N[C@H](C(=O)N[C@@H](CC(=O)O)C(=O)N[C@@H](CCC(N)=O)C(=O)N[C@@H](CCC(N)=O)C(=O)N[C@@H](CC(=O)O)C(=O)NCC(=O)N[C@@H](CCCCN)C(=O)N[C@@H](CC(N)=O)C(=O)N[C@@H](Cc1c[nH]cn1)C(=O)N[C@@H](Cc1c[nH]c2ccccc12)C(N)=O)C(C)C [Peptide 1, acetyl-RGVDQQDGKNHW-amide] (Ac-RGVDQQDGKNHW-NH2) | cleaved at a rate significantly greater than the other tested peptides
15 | CC(=O)N[C@@H](CC(=O)O)C(=O)N[C@@H](CC(=O)O)C(=O)N[C@@H](CCC(N)=O)C(=O)N[C@@H](CCC(N)=O)C(=O)N[C@@H](CC(=O)O)C(=O)NCC(=O)N[C@@H](Cc1c[nH]c2ccccc12)C(N)=O [Peptide 21, acetyl-DDQQDGW-amide] (Ac-DDQQDGW-NH2) | weak cleavage
16 | CC(=O)N[C@H](C(=O)N[C@@H](CO)C(=O)N[C@@H](CCC(N)=O)C(=O)N[C@@H](CCC(N)=O)C(=O)N[C@@H](CC(=O)O)C(=O)NCC(=O)N[C@@H](Cc1c[nH]c2ccccc12)C(N)=O)C(C)C [Peptide 22, acetyl-VSQQDGW-amide] (Ac-VSQQDGW-NH2) | tolerated, but is cleaved at a substantially lower efficiency than P4 Asp
17 | CC(=O)N[C@H](C(=O)N[C@@H](CCC(=O)O)C(=O)N[C@@H](CCC(N)=O)C(=O)N[C@@H](CCC(N)=O)C(=O)N[C@@H](CC(=O)O)C(=O)NCC(=O)N[C@@H](Cc1c[nH]c2ccccc12)C(N)=O)C(C)C [Peptide 23, acetyl-VEQQDGW-amide] (Ac-VEQQDGW-NH2) | not tolerated
18 | CC(=O)N[C@H](C(=O)N[C@@H](C)C(=O)N[C@@H](CCC(N)=O)C(=O)N[C@@H](CCC(N)=O)C(=O)N[C@@H](CC(=O)O)C(=O)NCC(=O)N[C@@H](Cc1c[nH]c2ccccc12)C(N)=O)C(C)C [Peptide 24, acetyl-VAQQDGW-amide] (Ac-VAQQDGW-NH2) | relatively poor cleavage
19 | CC(=O)N[C@H](C(=O)N[C@@H](CC(N)=O)C(=O)N[C@@H](CCC(N)=O)C(=O)N[C@@H](CCC(N)=O)C(=O)N[C@@H](CC(=O)O)C(=O)NCC(=O)N[C@@H](Cc1c[nH]c2ccccc12)C(N)=O)C(C)C [Peptide 25, acetyl-VNQQDGW-amide] (Ac-VNQQDGW-NH2) | not tolerated
20 | CC(=O)N[C@H](C(=O)N[C@@H](CC(=O)O)C(=O)N[C@@H](CCC(N)=O)C(=O)N[C@@H](Cc1ccc(O)cc1)C(=O)N[C@@H](CC(=O)O)C(=O)NCC(=O)N[C@@H](Cc1c[nH]c2ccccc12)C(N)=O)C(C)C [Peptide 40, acetyl-VDQYDGW-amide] (Ac-VDQYDGW-NH2) | poorly cleaved compared to the most preferred peptides
21 | CC(=O)N[C@H](C(=O)N[C@@H](CC(=O)O)C(=O)N[C@@H](CCC(N)=O)C(=O)N[C@@H](CCC(=O)O)C(=O)N[C@@H](CC(=O)O)C(=O)NCC(=O)N[C@@H](Cc1c[nH]c2ccccc12)C(N)=O)C(C)C [Peptide 41, acetyl-VDQEDGW-amide] (Ac-VDQEDGW-NH2) | poorly cleaved compared to the most preferred peptides
22 | CC(=O)N[C@H](C(=O)N[C@@H](CC(=O)O)C(=O)N[C@@H](CCC(N)=O)C(=O)N[C@@H](CCC(N)=O)C(=O)N[C@@H](CCC(=O)O)C(=O)NCC(=O)N[C@@H](Cc1c[nH]c2ccccc12)C(N)=O)C(C)C [Peptide 42, acetyl-VDQQEGW-amide] (Ac-VDQQEGW-NH2) | modest cleavage

Source: patent publication US6288037A (BASF Aktiengesellschaft, priority 1996, dated 2001)
